Source: patent publication US12344606B2, “Next-generation modulators of stimulator of interferon genes (STING)” (RYVU THERAPEUTICS S.A., priority 2019, dated 2025)

What was measured:
human STING = human STING (Homo sapiens, UniProt Q86WV6); experiment: Fluorescence Thermal Shift assay (hSTING FTS binding assay); conditions: STING 0.1 mg/ml, 20 min preincubation, SyproOrange
Procedure: Compounds of the present invention were tested for binding to human STING in Fluorescence Thermal Shift assay. STING was preincubated with the compounds for 20 minutes in 50 mM Hepes, 150 mM NaCl, pH 7.5 in 16 μl volume, following by adding 4 μl of SyproOrange dye dilution (ThermoFisher, cat no. S-6651). Final STING concentration was 0.1 mg/ml. Thermal unfolding was performed in Real-Time PCR QuantStudio 6 Flex System (Applied Biosystems), from 25 to 99° C., with continuous ramp mode and ramp rate 0.033° C./s. The data were analyzed using Protein Thermal Shift Software (ThermoFisher).

[1] = tested on: NF-κB pathway in THP-1 dual cells; experiment: THP-1 Dual reporter assay, NF-κB pathway (SEAP); assay type: cell-based; conditions: Homo sapiens, THP1-Dual; 18 h stimulation, absorbance; read-out: THP1 Dual EC50 (μM) NFkB
Procedure: (§1) Compounds of the present invention were tested for their activity using THP-1 dual cells (Invivogen, cat no. thpd-nfis) allowing for simultaneous study of NF-κB pathway and the interferon regulatory factor (IRF) pathway. THP-1 dual cells contain luciferase reporter gene under the control of an ISG54 (interferon-stimulated gene) minimal promoter in conjunction with five interferon-stimulated response elements and a secreted embryonic alkaline phosphatase reporter gene under the control an IFN (interferon)-β minimal promoter fused to five copies of the NF-κB consensus transcriptional response element with three copies of the c-Rel binding site. Following 18 h of stimulation with STING agonist, medium was collected and transferred onto fresh cell culture plate. To verify activity of the IRF pathway, luminescence activity was measured with standard laboratory plate reader immediately after addition 10 μl of the medium to 50 μl (or 40 μl) of luminescence reagent (Invivogen, cat. No. rep-qlc2). To verify activity of NF-κB pathway, 20 μl (or 10 μl) of the medium was mixed with 80 μl of a detection medium (Invivogen, cat. No. rep-qb2) and incubated for 2 hours (or 1 hour) at 37° C. in a humidified atmosphere containing 5% CO2. Next, absorbance at 630 nm (or 655 nm) was recorded using standard laboratory plate reader.

[2] = tested on: interferon regulatory factor (IRF) pathway in THP-1 dual cells; experiment: THP-1 Dual reporter assay, IRF pathway (luciferase); assay type: cell-based; conditions: Homo sapiens, THP1-Dual; 18 h stimulation, luminescence
Procedure: as §1

Sequence of human STING (Q86WV6 whole entry H232R): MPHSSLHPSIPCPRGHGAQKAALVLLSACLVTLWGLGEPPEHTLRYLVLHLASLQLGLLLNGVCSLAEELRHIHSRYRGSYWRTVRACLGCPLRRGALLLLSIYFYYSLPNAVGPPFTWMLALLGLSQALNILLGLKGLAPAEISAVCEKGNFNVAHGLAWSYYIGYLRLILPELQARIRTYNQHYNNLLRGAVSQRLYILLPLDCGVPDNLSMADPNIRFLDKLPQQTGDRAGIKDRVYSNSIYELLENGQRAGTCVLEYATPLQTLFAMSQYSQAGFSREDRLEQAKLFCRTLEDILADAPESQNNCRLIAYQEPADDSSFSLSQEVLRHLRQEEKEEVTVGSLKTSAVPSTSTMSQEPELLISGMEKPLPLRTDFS

| Compound | hSTING FTS binding assay (ΔT C.°) (human STING) | EC50 [1] [µM] | EC50 [2] [µM] |
| --- | --- | --- | --- |
| Cc1ccc(N2CCC[C@H](N(Cc3ccnc(C)c3)Cc3cn(C4CC4)c4nc(Cl)c(F)cc4c3=O)C2)cn1 [Example 42, 7-chloro-1-cyclopropyl-6-fluoro-3-({[(3S)-1-(6-methylpyridin-3-yl)piperidin-3-yl][(2-methylpyridin-4-yl)methyl]amino}methyl)-1,4-dihydro-1,8-naphthyridin-4-one] | ++ (ΔTm>10° C.) | ≤ 1 | ≤ 1 |
| Cc1ccc(N2CCC[C@H](N(Cc3ccnc(C)c3)Cc3cn(CC(=O)O)c4ccccc4c3=O)C2)cn1 [Example 51, 2-[3-({[(3S)-1-(6-Methylpyridin-3-yl)piperidin-3-yl][(2-methylpyridin-4-yl)methyl]amino}methyl)-4-oxo-1,4-dihydroquinolin-1-yl]acetic acid] | ++ (ΔTm>10° C.) | ≥ 10 | ≥ 10 |
| COc1cc(CN(Cc2c[nH]c3ccccc3c2=O)[C@H]2CCCN(c3cccnc3)C2)ccn1 [Example 6, 3-({[(2-methoxypyridin-4-yl)methyl][(3S)-1-(pyridin-3-yl)piperidin-3-yl]amino}methyl)-1,4-dihydroquinolin-4-one] | ++ (ΔTm>10° C.) | ≤ 1 | ≤ 1 |
| Cc1cc(CN(Cc2cn(C)c3ccccc3c2=O)[C@H]2CCCN(c3ccc([N+](=O)[O-])nc3)C2)ccn1 [Example 14, 1-methyl-3-({[(2-methylpyridin-4-yl)methyl][(3S)-1-(6-nitropyridin-3-yl)piperidin-3-yl]amino}methyl)-1,4-dihydroquinolin-4-one] | + (ΔTm<10° C.) | ≥ 10 | 1 to 10 |
| Cc1cc(CN(Cc2cn(C)c3ccccc3c2=O)[C@H]2CCCN(c3cccnc3)C2)cc(C)n1 [Example 38, 3-({[(2,6-dimethylpyridin-4-yl)methyl][(3S)-1-(pyridine-3-yl)piperidin-3-yl]amino}methyl)-1-methyl-1,4-dihydroquinolin-4-one] | + (ΔTm<10° C.) | ≥ 10 | ≥ 10 |
| Cn1cc(CN(Cc2ccns2)[C@H]2CCCN(c3cccnc3)C2)c(=O)c2ccccc21 [Example 55, 1-methyl-3-({[(3S)-1-(pyridin-3-yl)piperidin-3-yl][(1,2-thiazol-5-yl)methyl]amino}methyl)-1,4-dihydroquinolin-4-one] | + (ΔTm<10° C.) | ≥ 10 | ≥ 10 |
| COc1cc(N2CCC[C@H](N(Cc3ccnc(C)c3)Cc3cn(C)c4ccccc4c3=O)C2)ccn1 [Example 20, 3-({[(3S)-1-(2-methoxypyridin-4-yl)piperidin-3-yl][(2-methylpyridin-4-yl)methyl]amino}methyl)-1-methyl-1,4-dihydroquinolin-4-one] | + (ΔTm<10° C.) | ≥ 10 | ≥ 10 |
| Cc1cc(CN(Cc2cn(C)c3ccccc3c2=O)[C@H]2CCCN(c3ncc(Br)cn3)C2)ccn1 [Example 32, 3-({[(3S)-1-(5-bromopyrimidin-2-yl)piperidin-3-yl][(2-methylpyridin-4-yl)methyl]amino}methyl)-1-methyl-1,4-dihydroquinolin-4-one] | + (ΔTm<10° C.) | 1 to 10 | 1 to 10 |
| Cc1cc(CN(Cc2cn(C3CC3)c3cc(F)c(F)cc3c2=O)[C@H]2CCCN(c3cccnc3)C2)ccn1 [Example 12, 1-cyclopropyl-6,7-difluoro-3-({[(2-methylpyridin-4-yl)methyl][(3S)-1-(pyridin-3-yl)piperidin-3-yl]amino}methyl)-1,4-dihydroquinolin-4-one] | ++ (ΔTm>10° C.) | ≤ 1 | ≤ 1 |
| Cc1cc(CN(Cc2cn(C)c3ccccc3c2=O)[C@H]2C[C@H](F)CN(c3cccnc3)C2)ccn1 [Example 26, 3-({[(3S,5S)-5-fluoro-1-(pyridin-3-yl)piperidin-3-yl][(2-methylpyridin-4-yl)methyl]amino}methyl)-1-methyl-1,4-dihydroquinolin-4-one] | ++ (ΔTm>10° C.) | ≤ 1 | ≤ 1 |
| COc1cc(CN(Cc2cn(C3CC3)c3cc(F)c(F)cc3c2=O)[C@H]2CCCN(c3cccnc3)C2)ccn1 [Example 11, 1-cyclopropyl-6,7-difluoro-3-({[(2-methoxypyridin-4-yl)methyl][(3S)-1-(pyridin-3-yl)piperidin-3-yl]amino}methyl)-1,4-dihydroquinolin-4-one] | ++ (ΔTm>10° C.) | ≤ 1 | ≤ 1 |
| Cc1cc(CN(Cc2cn(C)c3cc(N4CCN(C)CC4)ccc3c2=O)[C@H]2CCCN(c3cccnc3)C2)ccn1 [Example 18, 1-methyl-7-(4-methylpiperazin-1-yl)-3-({[(2-methylpyridin-4-yl)methyl][(3S)-1-(pyridin-3-yl)piperidin-3-yl]amino}methyl)-1,4-dihydroquinolin-4-one] | ++ (ΔTm>10° C.) | ≤ 1 | ≤ 1 |
| COc1ncc(N2CCC[C@H](N(Cc3ccnc(C)c3)Cc3cn(C)c4ccccc4c3=O)C2)cn1 [Example 8, 3-({[(3S)-1-(2-methoxypyrimidin-5-yl)piperidin-3-yl][(2-methylpyridin-4-yl)methyl]amino}methyl)-1-methyl-1,4-dihydroquinolin-4-one] | + (ΔTm<10° C.) | ≥ 10 | ≥ 10 |
| Cc1ccc(N2CCC[C@H](N(Cc3ccnc(C)c3)Cc3cn(C4CC4)c4cc(N5CCN[C@H](C)C5)c(F)cc4c3=O)C2)cn1 [Example 46, 1-cyclopropyl-6-fluoro-7-[(3R)-3-methylpiperazin-1-yl]-3-({[(3S)-1-(6-methylpyridin-3-yl)piperidin-3-yl][(2-methylpyridin-4-yl)methyl]amino}methyl)-1,4-dihydroquinolin-4-one] | ++ (ΔTm>10° C.) | ≤ 1 | ≤ 1 |

Now from value to compound:

| hSTING FTS binding assay (ΔT C.°) (human STING) | EC50 [1] [µM] | EC50 [2] [µM] | Compound |
| --- | --- | --- | --- |
| + (ΔTm<10° C.) | ≥ 10 | ≥ 10 | Cc1cc(CN(Cc2cn(C)c3ccccc3c2=O)[C@H]2C[C@@H](C)CN(c3cccnc3)C2)ccn1 [Example 27, 1-methyl-3-({[(3S,5R)-5-methyl-1-(pyridin-3-yl)piperidin-3-yl][(2-methylpyridin-4-yl)methyl]amino}methyl)-1,4-dihydroquinolin-4-one] |
| + (ΔTm<10° C.) | 1 to 10 | ≥ 10 | Cc1cc(CN(Cc2cn(C)c3ccccc3c2=O)[C@H]2CCCN(c3nnc(C)o3)C2)ccn1 [Example 53, 1-methyl-3-({[(3S)-1-(5-methyl-1,3,4-oxadiazol-2-yl)piperidin-3-yl][(2-methylpyridin-4-yl)methyl]amino}methyl)-1,4-dihydroquinolin-4-one] |
| + (ΔTm<10° C.) | 1 to 10 | ≤ 1 | Cc1ccc(N2CCC[C@H](N(Cc3ccnc(C)c3)Cc3cn(C4CC4)c4cc(Cl)ncc4c3=O)C2)cn1 [Example 56, 7-chloro-1-cyclopropyl-3-({[(3S)-1-(6-methylpyridin-3-yl)piperidin-3-yl][(2-methylpyridin-4-yl)methyl]amino}methyl)-1,4-dihydro-1,6-naphthyridin-4-one] |
| + (ΔTm<10° C.) | ≥ 10 | ≥ 10 | Cc1cc(CN(Cc2cn(C)c3ccccc3c2=O)[C@H]2CCCN(c3cccnc3[N+](=O)[O-])C2)ccn1 [Example 36, 1-methyl-3-({[(2-methylpyridin-4-yl)methyl][(3S)-1-(2-nitropyridin-3-yl)piperidin-3-yl]amino}methyl)-1,4-dihydroquinolin-4-one] |
| ++ (ΔTm>10° C.) | ≤ 1 | ≤ 1 | Cc1cc(CN(Cc2cn(C3CC3)c3cc(N4CCN(C)CC4)c(F)cc3c2=O)[C@H]2CCCN(c3cccnc3)C2)ccn1 [Example 10, 1-cyclopropyl-6-fluoro-7-(4-methylpiperazin-1-yl)-3-({[(2-methylpyridin-4-yl)methyl][(3S)-1-(pyridin-3-yl)piperidin-3-yl]amino}methyl)-1,4-dihydroquinolin-4-one] |
| ++ (ΔTm>10° C.) | 1 to 10 | ≤ 1 | Cn1cc(CN(Cc2ccncc2)[C@H]2CCCN(c3cccnc3)C2)c(=O)c2ccccc21 [Example 39, 1-methyl-3-({[(3S)-1-(pyridin-3-yl)piperidin-3-yl][(pyridin-4-yl)methyl]amino}methyl)-1,4-dihydroquinolin-4-one] |
